# From PMC8620242 (Journal of Advanced Research, 2021)
# Molecular target: nsp12 (Severe acute respiratory syndrome coronavirus 2, UniProt P0DTD1)
# Assay: SPR binding to nsp12
# Parameters: species or system SARS-CoV-2
compound,measurement,value
"CC1(C)[C@@H](O)CC[C@]2(C)[C@H]3C(=O)C=C4[C@@H]5C[C@@](C)(C(=O)O)CC[C@]5(C)CC[C@@]4(C)[C@]3(C)CC[C@@H]12 [GA, glycyrrhetinic acid]",Kd,416 µM
